Measured values taken from PubChem BioAssay (NCI).
Where “and” joins values, the source holds several entries; their conditions need not be identical. Equal values may be shown once.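 96-well plates; 48 h exposure; 5 concentrations. Endpoints by linear interpolation between flanking doses. Not reached: highest tested concentration assigned. The concentration for 50% growth inhibition is given as GI50. TGI: total growth inhibition.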

What was measured:
Assay in all cases: growth of human tumour cells (NCI), 48 h
[1] = test system: OVCAR-8 ovarian
[2] = test system: NCI-H23 lung
[3] = test system: RPMI-8226 leukemia
[4] = test system: MOLT-4 leukemia
[5] = test system: SNB-19 CNS
[6] = test system: SW-620 colon
[7] = test system: HT29 colon
[8] = test system: NCI-H460 lung
[9] = test system: MDA-MB-231 breast
[10] = test system: SK-MEL-5 melanoma
[11] = test system: DMS 273 small cell lung
[12] = test system: HOP-92 NSCLC
[13] = test system: HOP-62 NSCLC
[14] = test system: SF-268 CNS
[15] = test system: MDA-N
[16] = test system: MDA-MB-435
[17] = test system: SK-MEL-28 melanoma
[18] = test system: SF-295 CNS
[19] = test system: M14 melanoma
[20] = test system: M19-MEL melanoma
[21] = test system: LXFL 529 NSCLC
[22] = test system: COLO 205 colon
[23] = test system: A549 NSCLC
[24] = test system: CCRF-CEM leukemia
[25] = test system: SR leukemia
[26] = test system: U251 CNS
[27] = test system: OVCAR-3 ovarian
[28] = test system: RXF 393 renal
[29] = test system: NCI-H226 lung
[30] = test system: HCC-2998 colon
[31] = test system: UO-31 renal
[32] = test system: EKVX NSCLC
[33] = test system: SNB-75 CNS
[34] = test system: DU-145 prostate
[35] = test system: A498 renal
[36] = test system: MALME-3M melanoma
[37] = test system: HCT-116 colon
[38] = test system: KM12 colon
[39] = test system: NCI-H522 lung
[40] = test system: OVCAR-5 ovarian
[41] = test system: SK-MEL-2 melanoma
[42] = test system: HL-60(TB) leukemia
[43] = test system: K-562 leukemia
[44] = test system: 786-0 renal
[45] = test system: HCT-15 colon
[46] = test system: LOX IMVI melanoma
[47] = test system: T-47D breast
[48] = test system: OVCAR-4 ovarian
[49] = test system: IGROV1 ovarian
[50] = test system: CAKI-1 renal
[51] = test system: MCF7 breast
[52] = test system: UACC-257 melanoma
[53] = test system: NCI/ADR-RES ovarian
[54] = test system: DMS 114 small cell lung
[55] = test system: SF-539 CNS
[56] = test system: XF 498 CNS
[57] = test system: SNB-78 CNS
[58] = test system: SK-OV-3 ovarian
[59] = test system: UACC-62 melanoma
[60] = test system: KM20L2 colon
[61] = test system: ACHN renal
[62] = test system: TK-10 renal
[63] = test system: DLD-1 colon
[64] = test system: SN12C renal
[65] = test system: HOP-18 NSCLC

CC[C@@]1(O)C(=O)OCc2c1cc1n(c2=O)Cc2cc3cc(OC)ccc3nc2-1
GI50 [1]: 15.3 nM and 23.9 nM
TGI [1]: 297 nM and 350 nM
GI50 [2]: 27.3 nM
GI50 [3]: 41.1 nM
TGI [3]: 8460 nM and 1230 nM
GI50 [4]: 3.8 nM
TGI [4]: 28.9 nM
TGI [5]: 4190 nM
GI50 [6]: 39.1 nM
TGI [6]: 4790 nM
GI50 [7]: 86.4 nM
TGI [7]: 238 nM
GI50 [8]: 4.33 nM
TGI [8]: 152 nM and 211 nM and 188 nM
GI50 [9]: 735 nM
TGI [10]: 116 nM and 27.8 nM
TGI [11]: 1580 nM
GI50 [12]: 25.1 nM
TGI [12]: 84 nM and 410 nM
TGI [13]: 948 nM
GI50 [14]: 17 nM
TGI [15]: 1040 nM
GI50 [16]: 117 nM
TGI [16]: 247 nM and 333 nM
GI50 [17]: 894 nM
TGI [18]: 93.3 nM and 800 nM
GI50 [19]: 127 nM
TGI [20]: 1480 nM
TGI [21]: 2510 nM
GI50 [22]: 419 nM and 143 nM
GI50 [23]: 67.2 nM and 10.9 nM
TGI [23]: 2920 nM
GI50 [24]: 2.32 nM
GI50 [25]: 4.61 nM
TGI [26]: 54.1 nM
GI50 [27]: 367 nM and 747 nM
TGI [27]: 5730 nM and 4540 nM
GI50 [28]: 101 nM
TGI [28]: 82.8 nM and 561 nM
TGI [29]: 63 nM and 96.8 nM and 20.6 nM
GI50 [30]: 147 nM and 65.6 nM
TGI [30]: 290 nM and 1090 nM and 388 nM
GI50 [31]: 249 nM
GI50 [32]: 1100 nM
TGI [32]: > 100000 nM
TGI [33]: 49.1 nM
GI50 [34]: 21.9 nM
TGI [34]: 41 nM
GI50 [35]: 27.2 nM
TGI [35]: 1800 nM and 307 nM
GI50 [36]: 25.7 nM
TGI [36]: 548 nM
GI50 [37]: 44.2 nM
TGI [37]: 573 nM and 481 nM
GI50 [38]: 273 nM
TGI [38]: 2580 nM and 1540 nM
TGI [39]: 437 nM and 1990 nM
GI50 [40]: 643 nM
TGI [40]: 562 nM
TGI [41]: 529 nM
GI50 [42]: 8.73 nM
TGI [42]: 17.2 nM
GI50 [43]: 57.1 nM and 34.4 nM
TGI [43]: > 100000 nM
GI50 [44]: 15.9 nM
GI50 [45]: 223 nM
TGI [45]: 8120 nM
GI50 [46]: 12.5 nM
TGI [46]: 173 nM and 298 nM and 105 nM
GI50 [47]: 18.5 nM
GI50 [48]: 682 nM
TGI [49]: 945 nM
TGI [50]: 90.8 nM
TGI [51]: 196 nM
GI50 [52]: 99.8 nM and 170 nM
TGI [52]: 1540 nM
GI50 [53]: 20.4 nM
TGI [53]: 169 nM
TGI [54]: 1020 nM
TGI [55]: 36.1 nM and 96.2 nM

CCOc1ccccc1NC(=O)CCc1nnc2s/c(=C\CCc3ccccc3)c(=O)n12
TGI [1]: > 100000 nM
TGI [2]: > 100000 nM
TGI [3]: > 100000 nM
TGI [4]: > 100000 nM
TGI [5]: > 100000 nM
TGI [56]: > 100000 nM
TGI [6]: > 100000 nM
TGI [7]: > 100000 nM
TGI [8]: > 100000 nM
TGI [57]: > 100000 nM
TGI [10]: > 100000 nM
TGI [58]: > 100000 nM
TGI [59]: > 100000 nM
TGI [11]: > 100000 nM
TGI [12]: > 100000 nM
TGI [13]: > 100000 nM
TGI [14]: > 100000 nM
TGI [17]: > 100000 nM
TGI [60]: > 100000 nM
TGI [18]: > 100000 nM
TGI [61]: > 100000 nM
TGI [19]: > 100000 nM
TGI [20]: > 100000 nM
TGI [21]: > 100000 nM
TGI [22]: > 100000 nM
TGI [23]: > 100000 nM
TGI [24]: > 100000 nM
TGI [25]: > 100000 nM
TGI [26]: > 100000 nM
TGI [27]: > 100000 nM
TGI [62]: > 100000 nM
TGI [28]: > 100000 nM
TGI [29]: > 100000 nM
TGI [30]: > 100000 nM
TGI [31]: > 100000 nM
TGI [33]: > 100000 nM
TGI [35]: > 100000 nM
TGI [36]: > 100000 nM
TGI [37]: > 100000 nM
TGI [38]: > 100000 nM
TGI [39]: > 100000 nM
TGI [40]: > 100000 nM
TGI [63]: > 100000 nM
TGI [41]: > 100000 nM
TGI [42]: > 100000 nM
TGI [43]: > 100000 nM
TGI [44]: > 100000 nM
TGI [45]: > 100000 nM
TGI [46]: > 100000 nM
TGI [48]: > 100000 nM
TGI [49]: > 100000 nM
TGI [50]: > 100000 nM
TGI [52]: > 100000 nM
TGI [54]: > 100000 nM
TGI [64]: > 100000 nM
TGI [55]: > 100000 nM

C/C(=N\NC(=O)CC(=O)Nc1ccc(Cl)cc1)c1cc2ccccc2oc1=O
TGI [1]: > 100000 nM
TGI [2]: > 100000 nM
TGI [3]: > 100000 nM
TGI [4]: > 100000 nM
TGI [5]: > 100000 nM
TGI [56]: > 100000 nM
TGI [6]: > 100000 nM
TGI [7]: > 100000 nM
TGI [8]: > 100000 nM
TGI [10]: > 100000 nM
TGI [58]: > 100000 nM
TGI [59]: > 100000 nM
TGI [11]: > 100000 nM
TGI [13]: > 100000 nM
TGI [17]: > 100000 nM
TGI [60]: > 100000 nM
TGI [18]: > 100000 nM
TGI [61]: > 100000 nM
TGI [19]: > 100000 nM
TGI [20]: > 100000 nM
TGI [22]: > 100000 nM
TGI [23]: > 100000 nM
TGI [24]: > 100000 nM
TGI [26]: > 100000 nM
TGI [27]: > 100000 nM
TGI [62]: > 100000 nM
TGI [28]: > 100000 nM
TGI [29]: > 100000 nM
TGI [31]: > 100000 nM
TGI [32]: > 100000 nM
TGI [33]: > 100000 nM
TGI [36]: > 100000 nM
TGI [37]: > 100000 nM
TGI [38]: > 100000 nM
TGI [39]: > 100000 nM
TGI [63]: > 100000 nM
TGI [42]: > 100000 nM
TGI [43]: > 100000 nM
TGI [65]: > 100000 nM
TGI [44]: > 100000 nM
TGI [45]: > 100000 nM
TGI [46]: > 100000 nM
TGI [49]: > 100000 nM
TGI [52]: > 100000 nM
TGI [54]: > 100000 nM
TGI [64]: > 100000 nM
TGI [55]: > 100000 nM
